Measured values: US20250263459A1, “STABILIZED PACAP PEPTIDE” (SENJU PHARMACEUTICAL CO., LTD., priority 2019, published 2025)
Non-standard residues stand in square brackets, D forms with d. Residues, ends and D or L forms follow the SMILES beside them. ξ: configuration not given here. ξAla(tetrazol-5-yl) = NC(Cc1nnn[nH]1)C(=O)O

How the values were obtained:
[1] = Stability test 1: survival rate of peptide in phosphate buffer (pH 7.0) after storage, HPLC; type: physicochemical; details: 100 μM peptide, 0.1% phosphate buffer pH 7.0, 40° C., 4 weeks (Table 4)
Summary of the method: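 Peptide solutions at 100 μM in phosphate buffer were stored at 40° C. for 1 week to 2 months depending on peptide. Remaining peptide was measured by reverse-phase HPLC peak area against an unstored standard, with survival rate also corrected for water loss through the container from weighing before and after storage.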

[2] = target: T1, VPAC1 receptor (Homo sapiens, UniProt P32241); assay: cAMP assay in CHO-K1 cells, VPAC1 receptor high-expressing cell line; type: cell-based; details: 30 minutes incubation
T1 construct: host or cells: CHO-K1
T1 sequence (P32241 31-457): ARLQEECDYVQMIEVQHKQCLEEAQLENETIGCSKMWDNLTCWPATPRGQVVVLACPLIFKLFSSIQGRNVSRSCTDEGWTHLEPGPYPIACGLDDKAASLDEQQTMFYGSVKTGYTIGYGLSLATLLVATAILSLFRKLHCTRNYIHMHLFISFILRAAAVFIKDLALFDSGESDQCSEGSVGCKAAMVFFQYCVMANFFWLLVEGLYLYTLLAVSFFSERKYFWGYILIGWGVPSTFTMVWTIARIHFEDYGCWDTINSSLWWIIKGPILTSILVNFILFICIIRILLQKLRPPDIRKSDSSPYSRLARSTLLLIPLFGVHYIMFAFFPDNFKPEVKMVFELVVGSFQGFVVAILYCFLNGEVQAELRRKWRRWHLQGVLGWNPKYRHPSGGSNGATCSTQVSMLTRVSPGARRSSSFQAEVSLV
Experimental: The cells were cultured for 18 to 24 hours at 37° C. in a 5% CO2 incubator, adhering the cells to the plate. […] A 5-fold dilution series was then prepared with the same Cell assay buffer and used in an assay. The cAMP assay was carried out using a Hit Hunter cAMP Assay for Biologics kit (product of DiscoveRx, Cat. No. 90-0075LM25), according to the included kit instructions. […] Next, the culture medium was removed from the CHO-K1 cell culture plate, washing was performed with PBS, and the peptide-cAMP antibody liquid mixtures were added to the cells and incubated for 30 minutes under a 5% CO2 atmosphere at 37° C. A working detection solution was then added and the culture plate was shielded from light with aluminum foil and incubated at 25° C. for 1 hour. After incubation, Solution A was added and the culture plate was shielded from light with aluminum foil and then incubated at 25° C. for 3 hours. […] The obtained value for the Relative Luminescence Unit (RLU) was analyzed with GraphPad Prism Ver 6.05 (product of Graph Pad) and the EC50 value was calculated for each peptide.

[3] = Stability test 1: survival rate of peptide in phosphate buffer (pH 7.0) after storage, HPLC; type: physicochemical; details: 100 μM peptide, 0.1% phosphate buffer pH 7.0, head prints 80° C., 8 weeks (Table 4)
[4] = target: T2, PAC1 receptor (PAC1R) (Homo sapiens, UniProt P41586); details: background statement; cited from earlier work
T2 sequence (P41586 21-468): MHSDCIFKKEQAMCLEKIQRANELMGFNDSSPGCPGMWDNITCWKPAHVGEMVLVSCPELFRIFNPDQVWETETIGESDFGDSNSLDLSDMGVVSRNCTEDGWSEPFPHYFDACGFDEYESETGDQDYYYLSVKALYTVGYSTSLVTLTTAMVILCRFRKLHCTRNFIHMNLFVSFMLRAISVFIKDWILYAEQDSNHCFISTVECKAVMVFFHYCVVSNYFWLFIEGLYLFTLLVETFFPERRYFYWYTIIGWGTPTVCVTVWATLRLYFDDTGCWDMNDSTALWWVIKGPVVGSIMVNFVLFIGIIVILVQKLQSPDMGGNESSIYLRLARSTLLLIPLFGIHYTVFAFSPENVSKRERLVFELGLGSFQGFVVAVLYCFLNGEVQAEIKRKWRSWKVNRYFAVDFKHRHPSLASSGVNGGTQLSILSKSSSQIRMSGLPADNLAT

Row | Molecule | survival rate after correction for water, 40° C. 4 week [1] [%] | EC50 [2] [nM] | survival rate after correction for water, 80° C. 8 week [3] [%] | affinity of PAC1R for PACAP relative to affinity of PAC1R for VIP [4]
1 | CC[C@H](C)[C@H](NC(=O)CNC(=O)C(Cc1nnn[nH]1)NC(=O)[C@H](CO)NC(=O)[C@@H](N)Cc1c[nH]cn1)C(=O)N[C@@H](Cc1ccccc1)C(=O)N[C@@H](C)C(=O)NC(Cc1nnn[nH]1)C(=O)N[C@@H](C)C(=O)N[C@@H](Cc1ccc(O)cc1)C(=O)N[C@@H](C)C(=O)N[C@@H](CCCNC(=N)N)C(=O)N[C@@H](Cc1ccc(O)cc1)C(=O)N[C@@H](CCCNC(=N)N)C(=O)N[C@@H](CCCCN)C(=O)N[C@@H](CCC(N)=O)C(=O)N[C@@H](CCSC)C(=O)N[C@@H](C)C(=O)N[C@H](C(=O)N[C@@H](CCCCN)C(=O)N[C@@H](CCCCN)C(=O)N[C@@H](Cc1ccc(O)cc1)C(=O)N[C@@H](CC(C)C)C(=O)N[C@@H](C)C(=O)N[C@@H](C)C(=O)N[C@H](C(=O)N[C@@H](CC(C)C)C(N)=O)C(C)C)C(C)C (stereo partly shown) [Peptide 3, HSTzGI FATzAY ARYRK QMAVK KYLAA VL] (H-HS[ξAla(tetrazol-5-yl)]GIFA[ξAla(tetrazol-5-yl)]AYARYRKQMAVKKYLAAVL-NH2) | 92.9 | 0.111 | 85.4 | 
2 | Pituitary adenylate cyclase-activating polypeptide [PACAP] |  |  |  | more than 1000 times
